Series [1] relates to TGF-β-stimulated PAI-1 promoter activity. The experiment in a line: TGF-β stimulated Pai-1 luciferase assay in MLECs-clone32 cells. The series is classed as cell-based. The settings on record: TGF-β 50 pM, 4 hours, read-out: IC50 value of compound inhibiting TGF-β-stimulated Pai-1 luciferase activity (%). The source says: TGF-β Stimulated Pai-1 Luciferase Assay
MLECs-clone32 cell line was used to measure the impact of different compounds on the downstream gene, plasminogenactivator inhibitor 1 (PAI-1) performance stimulated by TGF-β. MLECs-clone32 is an expression construct that is stably transfected for the Mv1Lu cell line, and the expression construct PAI-1 Luciferase contains a truncated (PAI-1) promoter fused to the firefly luciferase reporter gene^11,12. The activity stimulated by the truncated PAI-I promoter was quantified by using a luciferase assay. The luciferase activity stimulated by TGF-β in cells without compound treatment was set as 100%, and the effects of each compound on TGF-β-stimulated PAI-I promoter activity were compared. The steps for measuring Pai-1 luciferase activity include using a 96-well plate (DMEM medium containing 10% FBS), seeding each well with 1.5×10^5 cells, and culturing in an incubator overnight. After discarding the medium the next day, cells in DMEM medium with or without the addition of test compounds were treated with recombinant TGF-β (50 pM) and allowed to react in a 37° C. incubator for 4 hours. The cell culture medium was aspirated, washed with PBS, and the activity of Pai-1 luciferase was evaluated by luciferase assay.

Series [2] relates to human pulmonary artery endothelial cells (hPAEC). Nature of the series: BrdU cell proliferation assay, 10% FBS, hPAEC. The series is classed as cell-based. Particulars: Homo sapiens, Endothelial cell, read-out: EC50 (concentration for 50% of maximal effect). Here is the method:
(§1) BrdU (5-bromo-2-deoxyuridine) cell proliferation assay (BrdU assay)
(§2) A 48-well plate was used, and 1.5×10^4 cells were implanted in each well. After 24 hours, the medium was changed to serum-free culture medium and synchronized for 24 hours. A 2-fold concentration of the compound in serum-free culture medium is prepared and the cells were pretreated for 1 hour. Then, the same volume of culture medium containing 20% fetal bovine serum (FBS) was added to dilute the compound. The final concentration was 10% FBS culture medium and 1 times the concentration of the compound. In the experimental group that added TGF-β, the same volume of TGF-β culture medium containing 10 ng/mL was added, with a final concentration of 5 ng/mL TGF-β and 1 times the concentration of the compound, and in the experimental group added with TGF-β, the entire process was conducted in culture medium containing 0.1% serum. Then, BrdU reagent was added about 6 hours later, and the cells were collected the next day for enzyme-linked immunosorbent assay (ELISA) analysis, the compound treatment time was about 24 hours, and the BrdU treatment time was about 18 hours.
(§3) Five compounds to be tested were screened by cell survival assay (MTT assay) and BrdU (5-bromo-2-deoxyuridine) cell proliferation assay, and the information of these compounds was listed in Table 1 below. Tables 2 and 3 respectively listed the growth inhibitions of on human pulmonary artery endothelial cells (hPAEC), human pulmonary artery smooth muscle cells (hPASMC), normal rat pulmonary artery smooth muscle cells (rPASMC, as the control group, represented by “CON”), and rat pulmonary artery smooth muscle cells (represented by “MCT”), by the five compounds to be tested under the conditions of 10% FBS, 0.1% FBS and 100 pM TGF-β.

Series [3] deals with human pulmonary artery smooth muscle cells (hPASMC). Nature of the series: BrdU cell proliferation assay, 10% FBS, hPASMC. The series is classed as cell-based. Particulars: Homo sapiens, read-out: EC50 (concentration for 50% of maximal effect). Here is the method: as §1, §2, §3
Series [4] deals with normal rat pulmonary artery smooth muscle cells (rPASMC CON). The experiment in a line: BrdU cell proliferation assay, 10% FBS, rPASMC CON. The series is classed as cell-based. Particulars: Rattus norvegicus, read-out: EC50 (concentration for 50% of maximal effect). As to the method:
as §1, §2, §3

Series [5] concerns PAH rat pulmonary artery smooth muscle cells (rPASMC MCT). Nature of the series: BrdU cell proliferation assay, 10% FBS, rPASMC MCT. The series is classed as cell-based. The settings on record: Rattus norvegicus, read-out: EC50 (concentration for 50% of maximal effect). Here is the method:
as §1, §2, §3

Series [6] relates to human pulmonary artery endothelial cells (hPAEC). Nature of the series: BrdU cell proliferation assay, 0.1% FBS, 100 pM TGF-β, hPAEC. The series is classed as cell-based. The settings on record: Homo sapiens, Endothelial cell. As to the method: as §1, §2, §3
The test system of series [7] is human pulmonary artery smooth muscle cells (hPASMC). Nature of the series: BrdU cell proliferation assay, 0.1% FBS, 100 pM TGF-β, hPASMC. In kind it is cell-based. The settings on record: Homo sapiens. Here is the method: as §1, §2, §3
Series [8] has as its system normal rat pulmonary artery smooth muscle cells (rPASMC CON). Nature of the series: BrdU cell proliferation assay, 0.1% FBS, 100 pM TGF-β, rPASMC CON. The series is classed as cell-based. The settings on record: Rattus norvegicus. Here is the method:
as §1
as §2, with “with a final concentration of 5 ng/mL TGF-β and 1 times the concentration” left out
Five compounds to be tested were screened by cell survival assay (MTT assay) and BrdU (5-bromo-2-deoxyuridine) cell proliferation assay, and the information of these compounds was listed in Table 1 below.

In series [9] the test system is PAH rat pulmonary artery smooth muscle cells (rPASMC MCT). Nature of the series: BrdU cell proliferation assay, 0.1% FBS, 100 pM TGF-β, rPASMC MCT. Particulars: Rattus norvegicus. In kind it is cell-based. Here is the method: as §1, §2, §3
Series [10] has as its system monocrotaline induced pulmonary arterial hypertension rat. Nature of the series: Monocrotaline-induced pulmonary arterial hypertension rat model, Example 3 (7-DHC vs macitentan). Particulars: 30 mg/kg oral. The series is classed as in vivo. The source says: (§4) Pulmonary arterial hypertension animal experimental model
(§5) The present disclosure utilizes injection of monocrotaline to induce symptoms of pulmonary arterial hypertension in rats to establish a pulmonary arterial hypertension animal experimental model suitable for screening test drugs.
(§6) The diagnostic method of clinical pulmonary arterial hypertension standards is right heart catheterization, which is defined as mean pulmonary arterial pressure (mPAP) greater than or equal to 20 mmHg. The diagnostic criteria for pulmonary arterial hypertension, in addition to an increase in mean pulmonary arterial pressure, need to be combined with pulmonary vascular resistance (PVR) greater than 3 Wood unit. The right ventricle pressure (RVP) and systemic mean blood pressure (mbp) in rats with pulmonary arterial hypertension were measured by Millar Model PCU200 pressure system, and the heart rate (HR) was also monitored at the same time. After measuring the hemodynamic data, the arterial blood was extracted from the carotid artery of the pulmonary arterial hypertension rat, and the Abbott blood oximeter (i-STAT) combined with Abbott's special chip cartridge (i-STAT Cartridge G3+) was used to measure arterial gas analysis data such as pH, PaO2, PaCO2, HCO3 and base excess (BE) value in quantitative whole blood samples. The normal pH value is between 7.35 and 7.45, and the pH value indicates whether the experimental animal has the condition of acidemia, alkalemia, acidosis or alkalosis. The normal value of PaO2 is between 80 and 100 mmHg, which reflects the effectiveness of gas exchange (ventilation/perfusion). The normal value of PaCO2 is between 35 and 45 (such as 38 and 42) mmHg, which can evaluate the effectiveness of alveolar ventilation. The acid produced by food, tissue decomposition, inflammation and hypoxia rely on the lungs to excrete volatile acid CO2 (short-term) and the bicarbonate (HCO3^−) produced by the kidneys (long-term) to neutralize non-volatile acids, while the normal value of bicarbonate hydrogen radical (HCO3^−) is between 22 and 26 meq/L. BE is the base excess value, its normal value ranges from −2 to +2, the negative value represents the degree of alkali ion deficiency in the blood, a negative BE value (−) that is too high indicates metabolic acidosis, and a positive value (+) that is too high is metabolic alkalosis. At the end of the experiment, the rats were sacrificed and their hearts were removed and the left and right ventricles were separated and weighed (RV)/(S)+(LV).
Monocrotaline was utilized to induce pulmonary arterial hypertension rat animal model, intraperitoneal injection (IP) TGF-β receptor inhibitor 7-DHC (039) and oral administration of macitentan (soluble in methylcellulose), 7-DHC (039) was divided into two groups according to the dosage: 10 mg/kg or 20 mg/kg, and the dosage of macitentan group was 30 mg/kg.

Series [11] concerns monocrotaline induced pulmonary hypertension rat. Nature of the series: Monocrotaline-induced pulmonary arterial hypertension rat model, Example 2 (7-DHC, 042). The series is classed as in vivo. Particulars: 50 mg/kg IP.
From the text: as §4, §5, §6
Monocrotaline (MCT) was utilized to induce pulmonary hypertension rat animal model, the TGF-β receptor inhibitor 7-DHC (039) and compound No. 042 were tested via intraperitoneal (IP) administration, and the physiological parameters of the animals were collected, wherein includes measuring right ventricle pressure, systemic arterial pressure, heartbeat and right ventricle hypertrophy, as well as observing and analyzing the pulmonary artery thickening and blood oxygenation levels through pathological sections of lung tissue. Specifically, 7-DHC (039) was divided into two groups with a dosage of 10 mg/kg or 20 mg/kg, the dosage of group 042 was 50 mg/kg, each dosage group has 3 rats (n=3), while the control group (CON) and the pulmonary arterial hypertension rat group (MCT) had 6 rats (n=6) respectively.

The mark [12] stands for this setting: hPAEC, 100 pM TGF-β, 0.1% FBS, read-out: EC50.
The mark [13] stands for this setting: hPASMC, 100 pM TGF-β, 0.1% FBS, read-out: EC50.
[14] abbreviates: CON (normal rPASMC), 100 pM TGF-β, 0.1% FBS, read-out: EC50.
The mark [15] stands for this setting: MCT (PAH rPASMC), 100 pM TGF-β, 0.1% FBS, read-out: EC50.

This note sets out measurements from patent publication US20240408112A1, “METHOD FOR PREVENTING OR TREATING PULMONARY ARTERIAL HYPERTENSION BY USING 7-DEHYDROCHOLESTEROLS OR SALTS, OXIDES, METABOLITES, OR DERIVATIVES THEREOF” (EXCELSIOR PHARMATECH LABS., priority 2023, published 2024).

As for `CC(C)CCC[C@@H](C)[C@H]1CC[C@H]2C34C=CC5(C[C@@H](OC(=O)CBr)CC[C@]5(C)[C@H]3CC[C@]12C)n1c(=O)n(C)c(=O)n14` (stereo partly shown) [Code 203, MeTC7], the IC50 (in general, the concentration at which inhibition is half-maximal) in [1] was determined as 17.5 µM.

For `O=C(O)[C@H](O)Cc1ccc(O)c(O)c1` [Code 056, Danshensu], the EC50 in [2] is 272 µM; in series [3] it was 124 µM; in series [4], 35 µM; in [5], 25 µM; in series [6], 155 µM; in series [7], 100 µM. Further, the EC50 in [8] came out at 50 µM; in series [9], 36 µM.

Consider `CCCNS(=O)(=O)Nc1ncnc(OCCOc2ncc(Br)cn2)c1-c1ccc(Br)cc1` [Code 053, Macitentan], for which the EC50 was found to be 175 µM in [2]; 100 µM in [3]; 142 µM in [4]; 114 µM in series [5]; 40 µM in [6] (setting [12]); 59 µM in [7] (setting [13]). For the same compound, the EC50 was 96 µM in [8] (setting [14]) and 87 µM in [9] (setting [15]). Besides, the IC50 in series [1] was 82.9 µM. In series [10], the “Blood vessel thickening, in words” value is listed as “reduction in blood vessel thickening was also observed”. In series [10], the “Survival rate compared with the 7-DHC (039) group, in words” value was “significantly worse”. In addition, the Animal survival status entry in series [10] (23rd day after monocrotaline induction) was “died”. Also, in series [10] (second week of administration), the “Body weight and activity of the rats” value was “not greatly affected”.

As to `O=c1c(O)c(-c2ccc(O)c(O)c2)oc2cc(O)ccc12` [Code 050, Fisetin], the EC50 in series [2] (hPAEC, 10% FBS) was found to be 22 µM; in series [3] (hPASMC, 10% FBS), 27 µM; in series [4] (CON (normal rPASMC), 10% FBS) it was 59 µM; in [5] (MCT (PAH rPASMC), 10% FBS) it was 38 µM; in series [6] (setting [12]) it was 40 µM; in series [7] (setting [13]), 35 µM. The values for the EC50 in series [8] (setting [14]) and in series [9] (setting [15]) were 106 µM and 79 µM, respectively. Also, the concentration for half-maximal inhibition (IC50) in series [1] was found to be 44.1 µM.

For the compound `O=c1cc(-c2ccccc2)oc2cc(O)c(O)c(O)c12` [Code 042, Baicalein], the EC50 in series [2] was 20 µM; in [3] it was 5 µM; in series [6] (setting [12]), 15 µM; in series [7] (setting [13]), 4 µM; in [8] (setting [14]) it was 52 µM; in series [9] (setting [15]), 9 µM. Besides, the IC50 in series [1] is 14.8 µM. Besides, the “Right ventricle hypertrophy (RV/S+LV), in words” value in [11] (compared with MCT rats) is “slightly lower”. In addition, the “Weight and activity of the rats” value in [11] (second week of administration, sacrificed early on day 21) is on record as “significantly decreased”.
